Laboratory results taken from PMC12040169 (PLOS Biology, 2025).

Assay: in vitro
Settings: human, hela cells, % viability

Row | SMILES | viability at 28.5 h, 10 µM | viability at 28.5 h, 10 µM (bulk resorufin, single well)
1 | Cn1ncc2c(NCCCN3CCCC(CO)C3)nc(C(C)(C)C)nc21 (stereo not shown) [CBK307082] | 93% | 
2 | c1ccc(C2CCCNC2)cc1 (stereo not shown) [CBK011753] | 100% | 
3 | COc1ccc(CN2/C(=N/c3ccccc3)S[C@H]3[C@@H]2[C@@H](O)[C@H](O)C[C@@H]3C(N)=O)cc1 [CBK288941] | 102% | 
4 | O=S(=O)(NCc1cccnc1)N1CCOCC1 [CBK269945] | 85.1% | 
5 | COc1cc(-c2cnc(N)c(N3CCC[C@@H]3CO)n2)cc(OC)c1OC [CBK063478] | 101% | 
6 | CCCC(=O)N1CCn2c(nnc2-c2cncc(Br)c2)C1 [CBK304761] | 93.4% | 
7 | Cc1cc(F)c(S(=O)(=O)N2CCN(C)CC2)cc1NC(=O)c1cc2ccccc2o1 [CBK034419C] | 94% | 
8 | COc1ccccc1-c1nnc(NC(=O)COc2ccccc2)o1 [CBK287590] | 106% | 
9 | CCCC/C=C/c1cc(NCCc2ccccn2)n2nccc2n1 [CBK037155] | 96.5% | 
10 | S=C(NCC1CCCCC1)Nc1ncc(Cl)cc1Cl [CBK067053] | 91% | 
11 | COc1ccc(/C=N/Nc2ccc([N+](=O)[O-])cc2)c(C(=O)O)c1OC [CBK261984] | 90.5% | 
12 | CC(C)Nc1nc2ccccc2nc1Sc1ccncc1 [CBK115250] | 102% | 
13 | COCCNC(=O)c1ccc(-c2ccc3c(c2)OCO3)nc1N(C)C [CBK106050] | 101% | 
14 | CC(=O)c1cccc(NC(=O)c2cccn(Cc3ccc(C)cc3)c2=O)c1 [CBK294427] | 114% | 
15 | O=c1c2c3c(sc2nc(SCc2cc(O)[nH]n2)n1Cc1ccco1)CCC3 [CBK268301] | 99.4% | 
16 | Cc1c(S(=O)(=O)Nc2cccc(C(=O)OCC3CCCN(C)C3)c2)sc2ccc(Cl)cc12 (stereo not shown) [CBK167735G] | 109% | 
17 | CN(C(=O)[C@H]1CCCC[C@H]1C(=O)O)C1CCS(=O)(=O)C1 (stereo partly shown) [CBK286782] | 106% | 
18 | OCCN1CCN(c2nc(-c3cc(Cl)cc(Cl)c3)cn3ccnc23)CC1 [CBK066558] | 94.1% | 
19 | Cc1ccc(C)c(N2CCN(CCCNC(=S)Nc3ccc(Cl)cc3Cl)CC2)c1 [CBK267951] | 99.6% | 
20 | Cc1ccc(OCC(=O)Nc2cccc3nsnc23)c(C)c1 [CBK263816] | 102% | 
21 | O=C(Nc1cccc(-c2nnc3n2CCCCC3)c1)[C@@H]1CCCN1C(=O)c1cccs1 [CBK297090] | 109% | 
22 | CN1C[C@@H](C(=O)N2CCCCCC2)[C@@]2(CCc3ccccc3C2=O)C1 [CBK284590] | 87% | 

Row | SMILES | viability at 28.5 h, 10 µM | viability at 28.5 h, 10 µM (bulk resorufin, single well)
23 | COC(=O)COc1ccccc1/C=C1\SC(c2ccc(C)cc2)=NC1=O [CBK067741] | 92.6% | 
24 | COc1ccc(-c2cc(=O)oc3cc(OCC(=O)c4cc5ccccc5o4)ccc23)cc1 [CBK265634] | 97.7% | 
25 | Clc1ccc(OCc2nnn[nH]2)c(C2CCCCC2)c1 [CBK270035] | 103% | 
26 | Cc1c(S(=O)(=O)Nc2cc(C(F)(F)F)ccc2N2CCOCC2)cnn1-c1ccccc1 [CBK062551] | 99.7% | 
27 | CC1=CC(C)C(COC(N)=O)(COC(N)=O)C(C)C1 (stereo not shown) [CBK020974] |  | 93.7%
28 | COc1ccc(CN2C(=O)CC3(C2=O)C(=O)N(C)c2ccccc23)cc1OC (stereo not shown) [CBK075450] | 91.8% | 
29 | CC(C)(C)COC(=O)N1CCC2(CC1)CC(=O)N(Cc1ccc(S(C)(=O)=O)cc1)C2=O [CBK155949] | 91.4% | 
30 | O=[N+]([O-])c1ccc(C2CNC(c3ccccc3O)O2)cc1 (stereo not shown) [CBK262298] | 94% | 
31 | COc1ccccc1/C=N/C12CN3CN(CN(C3)C1)C2 [CBK261387] | 93% | 
32 | COc1ccc(-c2cnc(N)c(NCc3cccnc3)n2)c(OC)c1OC [CBK063540] | 99% | 
33 | CC(=O)Nc1ccc(Oc2cc(C)nc(C3CCNCC3)c2)cc1 [CBK283468] | 86.5% | 
34 | O=C1CC(c2nc(-c3ccncc3)no2)CN1c1ccc2c(c1)OCO2 (stereo not shown) [CBK288583] | 110% | 
35 | CC(Cn1cncn1)C(=O)N1CCC(CCc2ccccc2F)CC1 (stereo not shown) [CBK281529] | 96% | 
36 | NC(=O)CSc1nnc(NC(=O)c2ccc(Cl)cc2Cl)s1 [CBK287627] | 86.4% | 
37 | COc1ccccc1CC(=O)N1CCC(Cc2cccc(-c3cccs3)c2)(C(N)=O)CC1 [CBK285743] | 93.3% | 
38 | Cc1cc(C)n(CC(C)NC(=O)C(c2ccccc2)N2CCCC2)n1 (stereo not shown) [CBK281645] | 82.1% | 
39 | N#Cc1ccc(NC(=O)c2ccc(-n3cnnc3)cc2Cl)cc1 [CBK269758] | 87.2% | 
40 | Cc1cc(C(=O)O)c2[nH]c3c(c2c1)CCCC3 [CBK028885] | 95.5% | 
41 | C=Cn1cccc1C(=O)N1C2CCC1c1cnc3cc(C)nn3c1C2 (stereo not shown) [CBK284382] | 89.2% | 
42 | Cc1nc([N+](=O)[O-])c(C(=O)OCc2ccccc2C#N)n1C [CBK293991] | 82.1% | 
43 | O=C(CSc1ncnc2sc3c(c12)CCC3)Nc1nsc(-c2ccc(Cl)cc2)n1 [CBK266484] | 118% | 
44 | Cc1cc(C2CCCCCN2C(=O)c2c(Cl)cnn2C)on1 (stereo not shown) [CBK283045] | 108% | 

Row | SMILES | viability at 28.5 h, 10 µM | viability at 28.5 h, 10 µM (bulk resorufin, single well)
45 | Cc1cc2ncc3c(n2n1)CC1CCC3N1C(=O)CCn1cccc1 (stereo not shown) [CBK283157] | 109% | 
46 | CCc1nn(CC(=O)NC2CCC2)c(=O)c2cc3ccsc3n12 [CBK284136] | 88.9% | 
47 | O=C(c1ccc(NC2CC2)nc1)N1CCC(CN2CCOCC2)CC1 [CBK305970] | 87.6% | 
48 | CO[C@@]12CC[C@H](OCC(=O)O)C[C@@H]1N(Cc1c(C)cnn1C)CC2 [CBK306638] | 95.6% | 
49 | CCOc1ncccc1NC(=O)C(C)n1cccn1 (stereo not shown) [CBK245377] | 105% | 
50 | COCCCN1C(=O)c2[nH]nc(-c3cc(C)c(C)cc3O)c2C1c1ccc(SC)cc1 (stereo not shown) [CBK268884] | 89% | 
51 | COc1ccc(C(=O)Nc2nc3ccc(S(C)(=O)=O)cc3s2)cc1 [CBK287338] | 94.3% | 
52 | c1cc(OCCN2CCCC2)c2cc[nH]c2c1 [CBK083478] | 101% | 
53 | Nc1ncc(-c2ccccc2CO)nc1N1CCN(CCO)CC1 [CBK063404] | 100% | 
54 | COc1ccc(-c2nc(NC3CCCCC3)c3ccccc3n2)cc1 [CBK058109] | 95.6% | 
55 | O=C1c2cccc([N+](=O)[O-])c2C(=O)N1c1cc(Cl)cc(Cl)c1 [CBK115326] | 112% | 
56 | OCCN(Cc1ccncc1)CC1(c2ccc(Cl)cc2)CC1 [CBK282782] | 90.7% | 
57 | CC(CNC(=O)Cc1ccc(C(F)(F)F)cc1[N+](=O)[O-])N1CCc2ccccc2C1 (stereo not shown) [CBK298292] | 88.8% | 
58 | CNS(=O)(=O)c1cccc(C(C)NC(=O)N2CCC2)c1 (stereo not shown) [CBK306257] | 87.1% | 
59 | Cc1cc(Br)ccc1OCC(=O)O/N=C(\N)Cc1ccc([N+](=O)[O-])cc1 [CBK265095] | 99.8% | 
60 | O=C1CNC(=O)C2(C/C=C/C[C@H]3COCC[C@@H]3N1)CCN(C(=O)c1cccc(Cl)c1)CC2 [CBK292066] | 111% | 
61 | Cc1c(C(N)=O)sc2ncn(CCc3ccccc3)c(=O)c12 [CBK268492] | 103% | 
62 | CC(C)c1ccc(/C=C/C(=O)NCc2ccccc2)cc1 [CBK149635] | 112% | 
63 | Cc1nn(-c2ccccc2)c(Cl)c1CN1C(=O)NC2(CCCC2)C1=O [CBK305070] | 91.9% | 
64 | COc1ccccc1NC(=O)NC(=O)C1CCN(C)CC1 [CBK034830] | 96.6% | 
65 | CC1CCc2c(C(=O)N3CCC4(CC3)NC(=O)NC4=O)csc2C1 (stereo not shown) [CBK305741] | 101% | 
66 | Cc1oc2cc(OCC(=O)NCC(=O)O)ccc2c(=O)c1-c1ccc(Cl)cc1 [CBK286697] | 99.6% | 

Row | SMILES | viability at 28.5 h, 10 µM | viability at 28.5 h, 10 µM (bulk resorufin, single well)
67 | Cc1cccc(C(=O)NC(CC(C)C)c2nnc3n2CCNCC3)n1 (stereo not shown) [CBK306866] | 108% | 
68 | O=C(Nc1ccc(S(=O)(=O)Nc2nccs2)cc1)c1cc(-c2cccnc2)nc2ccc(Cl)cc12 [CBK267721] | 105% | 
69 | Cc1ccc(/C=C/C(=O)O)cc1S(=O)(=O)NCC1CCCO1 (stereo not shown) [CBK287267] | 82.5% | 
70 | O=c1ccc2c(-c3ccccc3)ccnc2[nH]1 [CBK073723] | 94.2% | 
71 | COc1ccc(Oc2cncc(OC3CCN(CCCn4c(=O)[nH]c5ccccc54)C3)n2)cc1OC (stereo not shown) [CBK084406] | 97.6% | 
72 | O=S(=O)(O)c1cccc2cccc(I)c12 [CBK301197N] | 89.1% | 
73 | COc1ccc(C(=O)N2CCC[C@H]3NC(=O)COc4ccccc4C(=O)N[C@@H]4CCOC[C@@H]4C/C=C/C[C@@H]32)cc1 [CBK292194] | 102% | 
74 | OC1(c2ccc(F)cc2)CC2CCC(C1)N2Cc1ccccn1 (stereo not shown) [CBK283490] | 108% | 
75 | COC(=O)CN1C(c2ccccc2O)Nc2ccc(Br)cc2C1c1ccccc1 (stereo not shown) [CBK263133] | 91.1% | 
76 | Cn1c(SCC(=O)Nc2ccc(F)cc2)nnc1-c1cccnc1 [CBK267035] | 94.7% | 
77 | Cc1nnc([C@H]2CCN(Cc3ccc4c(c3)OCO4)C2)o1 [CBK289392] | 111% | 
78 | CC(CNC1CCCC1)C(O)(c1ccccc1)c1ccccc1 (stereo not shown) [CBK012237C] | 101% | 
79 | CCNC(=O)CN1CCN(C(=O)C(C)(C)c2cccc(C#N)c2)CC1 [CBK306141] | 96.4% | 
80 | Cc1cc(OC(=O)C2CCC(CNC(=O)OC(C)(C)C)CC2)c2c3c(c(=O)oc2c1)CCC3 (stereo not shown) [CBK083583] | 103% | 
81 | O=C(O)CCC(=O)N1CCN(Cc2ccc(Cl)cc2)CC1 [CBK286852] | 90% | 
82 | CCc1noc(CN2CCC(c3c[nH]c4ccc(OC)cc34)CC2)n1 [CBK305960] | 84.1% | 
83 | COC(=O)c1ccccc1Oc1nc(OC)cc(OC)n1 [CBK092217] | 110% | 
84 | CCOCCNS(=O)(=O)c1ccc(C(C)(C)CC)cc1 [CBK044655] | 98.2% | 
85 | Cc1cc(C)n(CC(C)CNC(=O)NCCN2CCCCCC2=O)n1 (stereo not shown) [CBK305389] | 92% | 
86 | CN(C)c1ccc(-c2nccnc2NS(=O)(=O)c2ccc(C(F)(F)F)cc2)cc1 [CBK050802] | 95.1% | 
87 | CC1CCN(CC(=O)NC2CCN(C(C)c3ccccc3)CC2)CC1 (stereo not shown) [CBK284017] | 101% | 
88 | CCOC(=O)c1csc(C2CCCN2C(=O)c2ccsc2)n1 (stereo not shown) [CBK304125] | 77.5% | 
